Values of other authors as cited in patent US12420242B1 (KING SAUD UNIVERSITY, priority 2025, dated 2025).
Converted amounts (≈) assume the structure as drawn. Read-outs that look alike come from different tables or passages of the source.

How the values were obtained:
[1] = not given; remark: listed apart in the source

Row | Compound | Density | Density (Table 1) | solubility in water [1] | solubility in water ([1]; Table 1)
1 | c1ccsc1 [thiophene] | 1.05 g/mL | 1.05 g · cm^−3 | – | –
2 | CCCCCCC [n-heptane] | – | 0.68 g · cm^−3 | 2 µg/mL (≈ 20 µM) | 2 µg/mL (≈ 20 µM)
3 | O [water] | 1.0 g/mL | 1.00 g · cm^−3 | – | –
